Several values for one entry are separate records, joined by “and”; a condition that tells them apart may be missing. Equal entries are not always repeated. Inconclusive results and toxic doses are left out. Rule as the data show it: active = T/C of 150% or more; inactive = T/C below 125%.
System: L1210 leukemia ip in BDF1 mice, survival T/C
Experiment: NCI In Vivo Anticancer Drug Screen. Data for tumor model L1210 Leukemia (intraperitoneal) in B6D2F1 (BDF1) mice
Conditions: endpoint: mean survival time, higher = longer survival
In short: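 Tumor cells were implanted, animals were treated, and survival was followed. The result divides the treated measurement by the vehicle-control measurement.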

[1] = dose: 100.0 mg/kg/injection, schedule: Q01DX009 (ip), vehicle: Klucel (hydroxypropylcellulose) (HPC)
[2] = dose: 100.0 mg/kg/injection, schedule: Q04DX003 (ip), vehicle: Klucel (hydroxypropylcellulose) (HPC)
[3] = dose: 200.0 mg/kg/injection, schedule: Q01DX009 (ip), vehicle: Klucel (hydroxypropylcellulose) (HPC)
[4] = dose: 200.0 mg/kg/injection, schedule: Q04DX003 (ip), vehicle: Klucel (hydroxypropylcellulose) (HPC)
[5] = dose: 400.0 mg/kg/injection, schedule: Q01DX009 (ip), vehicle: Klucel (hydroxypropylcellulose) (HPC)
[6] = dose: 400.0 mg/kg/injection, schedule: Q04DX003 (ip), vehicle: Klucel (hydroxypropylcellulose) (HPC)
[7] = dose: 100.0 mg/kg/injection, schedule: Q04DX003 (ip), vehicle: saline with Tween-80
[8] = dose: 200.0 mg/kg/injection, schedule: Q04DX003 (ip), vehicle: saline with Tween-80
[9] = dose: 400.0 mg/kg/injection, schedule: Q04DX003 (ip), vehicle: saline with Tween-80
[10] = dose: 100.0 mg/kg/injection, schedule: Q01DX001 (ip), vehicle: carboxymethylcellulose (CMC)
[11] = dose: 200.0 mg/kg/injection, schedule: Q01DX001 (ip), vehicle: carboxymethylcellulose (CMC)
[12] = dose: 400.0 mg/kg/injection, schedule: Q01DX001 (ip), vehicle: carboxymethylcellulose (CMC)
[13] = dose: 100.0 mg/kg/injection, schedule: Q04DX002 (ip), vehicle: saline with Tween-80
[14] = dose: 200.0 mg/kg/injection, schedule: Q04DX002 (ip), vehicle: saline with Tween-80
[15] = dose: 100.0 mg/kg/injection, schedule: Q01DX009 (ip), vehicle: saline with Tween-80
[16] = dose: 200.0 mg/kg/injection, schedule: Q01DX009 (ip), vehicle: saline with Tween-80
[17] = dose: 400.0 mg/kg/injection, schedule: Q01DX009 (ip), vehicle: saline with Tween-80
[18] = dose: 50.0 mg/kg/injection, schedule: Q04DX003 (ip), vehicle: Klucel (hydroxypropylcellulose) (HPC)
[19] = dose: 100.0 mg/kg/injection, schedule: Q01DX001 (ip), vehicle: saline
[20] = dose: 200.0 mg/kg/injection, schedule: Q01DX001 (ip), vehicle: saline

Measured: T/C

O=C1c2ccccc2C(=O)N1CCOc1ccc([N+](=O)[O-])cc1
inactive: dose: 100.0 mg/kg/injection, schedule: Q01DX001 (ip), vehicle: gum acacia 92 % of control | dose: 200.0 mg/kg/injection, schedule: Q01DX001 (ip), vehicle: gum acacia 99 % of control | dose: 400.0 mg/kg/injection, schedule: Q01DX001 (ip), vehicle: gum acacia 92 % of control

CS(=O)(=O)c1ccc(/C=C2/C=Cc3ccccc32)cc1
inactive: [1] 95 % of control | [2] 96 % of control | [3] 103 % of control | [4] 96 % of control | [5] 95 % of control | [6] 98 % of control

CCC(CC)C1CC[N-]CC1.CCC(CC)C1CC[N-]CC1.N#C[S-].N#C[S-].[Cu]
inactive: dose: 75.0 mg/kg/injection, schedule: Q01DX001 (ip), vehicle: saline 123 % of control

CCOC(=O)C1=NN(c2ccccc2)C(=O)C1
inactive: [1] 105 % of control | [2] 98 % of control | [7] 94 % of control | [3] 103 % of control | [4] 96 % of control | [8] 100 % of control | [5] 92 % of control | [6] 102 % of control | [9] 93 % of control

C(=Nc1ccccc1)c1ccc2c(c1)COO2
inactive: [2] 101 % of control | [4] 101 % of control | [6] 101 % of control

Cc1cc(/C=C/C2=[N+](C)c3ccc(F)cc3C2(C)C)c(O)c2ncccc12
inactive: [10] 98 % of control | [11] 90 % of control | [12] 93 % of control

O=S(=O)(F)c1ccc(-c2cc(Cl)c3cc(F)ccc3n2)cc1
inactive: [2] 105 % of control | [4] 106 % of control | [6] 106 % of control

CCCCOC1=CC2C(=CCC3C2(C)C(=O)CC2(C)C(C(C)(O)C(=O)/C=C/C(C)(C)O)C(O)CC32C)C(C)(C)C1=O (configuration not stated)
inactive: dose: 50.0 mg/kg/injection, schedule: Q04DX002 (ip), vehicle: saline with Tween-80 97 % of control | [13] 97 % of control | [14] 101 % of control

CC(CO)(CO)NC(=O)Nc1ccccc1F
inactive: [15] 113 % of control | [16] 103 % of control | [17] 101 % of control

Cc1ccc(C(Br)S(=O)(=O)c2ccccc2)cc1 (configuration not stated)
inactive: dose: 100.0 mg/kg/injection, schedule: Q04DX002 (ip), vehicle: Klucel (hydroxypropylcellulose) (HPC) 97 % of control | dose: 200.0 mg/kg/injection, schedule: Q04DX002 (ip), vehicle: Klucel (hydroxypropylcellulose) (HPC) 86 % of control | dose: 400.0 mg/kg/injection, schedule: Q04DX002 (ip), vehicle: Klucel (hydroxypropylcellulose) (HPC) 111 % of control

CCc1cccc(CC)c1NC(=O)NS(=O)(=O)c1ccccc1
inactive: [15] 91 % of control | [16] 88 % of control

CC[CH](C)[Hg][c]1cccc2ccccc12 (configuration not stated)
inactive: dose: 25.0 mg/kg/injection, schedule: Q01DX009 (ip), vehicle: Klucel (hydroxypropylcellulose) (HPC) 96 % of control | dose: 50.0 mg/kg/injection, schedule: Q01DX009 (ip), vehicle: Klucel (hydroxypropylcellulose) (HPC) 97 % of control | [1] 97 % of control and 100 % of control | [2] 100 % of control | [4] 97 % of control | [6] 96 % of control

Brc1cccc(CCOCc2ccccc2)c1
inactive: [13] 103 % of control | [14] 100 % of control | dose: 400.0 mg/kg/injection, schedule: Q04DX002 (ip), vehicle: saline with Tween-80 97 % of control

CC(=O)Nc1cc2ccccc2[n+](C)c1
inactive: dose: 12.5 mg/kg/injection, schedule: Q04DX003 (ip), vehicle: Klucel (hydroxypropylcellulose) (HPC) 94 % of control | dose: 25.0 mg/kg/injection, schedule: Q04DX003 (ip), vehicle: Klucel (hydroxypropylcellulose) (HPC) 98 % of control | [18] 96 % of control

CC1CCNCC1
inactive: dose: 100.0 mg/kg/injection, schedule: Q04DX002 (ip), vehicle: saline 105 % of control | dose: 200.0 mg/kg/injection, schedule: Q04DX002 (ip), vehicle: saline 102 % of control | dose: 400.0 mg/kg/injection, schedule: Q04DX002 (ip), vehicle: saline 94 % of control

CC(=O)CC(=O)N1CCN(C(=O)CC(C)=O)CC1
inactive: dose: 100.0 mg/kg/injection, schedule: Q01DX009 (ip), vehicle: saline 100 % of control | dose: 200.0 mg/kg/injection, schedule: Q01DX009 (ip), vehicle: saline 96 % of control | dose: 400.0 mg/kg/injection, schedule: Q01DX009 (ip), vehicle: saline 100 % of control

Cc1ccc(N=Nc2ccc(C)cc2NC(=O)Nc2ccccc2F)cc1
inactive: [1] 104 % of control | [3] 97 % of control | [5] 88 % of control

Cc1sc(Cc2ccccc2)nc1-c1ccc(N=Cc2ccc(N(CCOS(C)(=O)=O)CCOS(C)(=O)=O)cc2)cc1
inactive: dose: 25.0 mg/kg/injection, schedule: Q04DX003 (ip), vehicle: saline with Tween-80 113 % of control | dose: 50.0 mg/kg/injection, schedule: Q04DX003 (ip), vehicle: saline with Tween-80 123 % of control | [7] 107 % of control and 114 % of control

CCCCCCCCCCCCSC(=S)N(CC)CC
inactive: dose: 87.5 mg/kg/injection, schedule: Q01DX009 (ip), vehicle: other 89 % of control | dose: 175.0 mg/kg/injection, schedule: Q01DX009 (ip), vehicle: other 93 % of control | dose: 350.0 mg/kg/injection, schedule: Q01DX009 (ip), vehicle: other 97 % of control

O=S1(=O)CC2(N3CCCCC3)CCCCC21 (configuration not stated)
inactive: dose: 5.0 mg/kg/injection, schedule: Q01DX009 (ip), vehicle: saline 94 % of control | dose: 10.0 mg/kg/injection, schedule: Q01DX009 (ip), vehicle: saline 96 % of control

CC(=O)CC(=O)N(N=O)c1ccccc1C
inactive: [19] 104 % of control | [20] 95 % of control

COc1ccccc1-n1c(O)c(N=Nc2ccc(Cl)cc2)c(=O)n(-c2ccc(I)cc2)c1=S
inactive: dose: 37.5 mg/kg/injection, schedule: Q01DX001 (ip), vehicle: Klucel (hydroxypropylcellulose) (HPC) 94 % of control | dose: 75.0 mg/kg/injection, schedule: Q01DX001 (ip), vehicle: Klucel (hydroxypropylcellulose) (HPC) 94 % of control | dose: 150.0 mg/kg/injection, schedule: Q01DX001 (ip), vehicle: Klucel (hydroxypropylcellulose) (HPC) 90 % of control

CCCCCCCCCCCCCC(=O)N(CCC)CCC
inactive: [10] 96 % of control | dose: 100.0 mg/kg/injection, schedule: Q01DX009 (ip), vehicle: carboxymethylcellulose (CMC) 94 % of control and 110 % of control | dose: 100.0 mg/kg/injection, schedule: Q04DX003 (ip), vehicle: carboxymethylcellulose (CMC) 95 % of control | [11] 93 % of control | dose: 200.0 mg/kg/injection, schedule: Q01DX009 (ip), vehicle: carboxymethylcellulose (CMC) 98 % of control and 103 % of control | dose: 200.0 mg/kg/injection, schedule: Q04DX003 (ip), vehicle: carboxymethylcellulose (CMC) 95 % of control | [12] 91 % of control | dose: 400.0 mg/kg/injection, schedule: Q04DX003 (ip), vehicle: carboxymethylcellulose (CMC) 93 % of control

Cc1ncc(-c2ccc([N+](=O)[O-])cc2)o1
inactive: [18] 94 % of control | [2] 102 % of control | [4] 94 % of control

O=c1c2ccccc2c2c3c1cccc3c1cccc3c(=O)c4ccccc4c2c31
inactive: [7] 98 % of control | [8] 101 % of control | [9] 104 % of control

NC(=O)c1csc(CCNC(=O)c2ccccc2)n1
inactive: dose: 100.0 mg/kg/injection, schedule: Q01DX001 (ip), vehicle: saline with Tween-80 100 % of control | [15] 100 % of control | [7] 95 % of control | dose: 200.0 mg/kg/injection, schedule: Q01DX001 (ip), vehicle: saline with Tween-80 102 % of control | [16] 100 % of control | [8] 103 % of control | dose: 400.0 mg/kg/injection, schedule: Q01DX001 (ip), vehicle: saline with Tween-80 104 % of control | [17] 89 % of control | [9] 101 % of control

CC(C)(F)C(Br)C(=O)O (configuration not stated)
inactive: [14] 93 % of control

CCN(CC)CCC(=O)OC(c1ccccc1)C1(O)CCSC1 (configuration not stated)
inactive: [2] 106 % of control | [4] 96 % of control

CCOC(=O)CC(=O)OCC
inactive: [19] 93 % of control | [20] 93 % of control | dose: 400.0 mg/kg/injection, schedule: Q01DX001 (ip), vehicle: saline 90 % of control

From PubChem BioAssay AID248 (DTP/NCI, 2004)
